Source: patent US20150004224A1
Values joined by “and” are separate entries in the source; they are usually repeats but may differ in a detail not shown here. Identical values can stand only once.

System: Hep G2 hepatocarcinoma cells
Experiment: Gene expression profiling of Hep G2 cells incubated with EPA, DHA, DPA (Illumina HT-12 bead arrays, Ingenuity iReport)
[1] = EPA 100 μM, DHA 40 μM, DPA 11 μM
[2] = top genes uniquely regulated by DPA (11 μM), 48 hours

In the case of `CC/C=C\C/C=C\C/C=C\C/C=C\C/C=C\C/C=C\CCC(=O)O` [DHA, docosahexaenoic acid (C22:6 n-3)], the “FOXO3 regulation (top genes uniquely regulated by DHA)” value (DHA 40 μM) is reported as “←”, the “LSMD1 regulation (top genes uniquely regulated by DHA)” value (DHA 40 μM) is reported as “↑” and the “MAP2K2 regulation (top genes uniquely regulated by DHA)” value (DHA 40 μM) is reported as “↓”. The “MRPS34 regulation (top genes uniquely regulated by DHA)” value (DHA 40 μM) was “↑”, the “MT1X regulation (top genes uniquely regulated by DHA)” value (DHA 40 μM) was “↑” and the “NFKB1 regulation (top genes uniquely regulated by DHA)” value (DHA 40 μM) was “←”. For the same molecule, the “SNORA62 regulation (top genes uniquely regulated by DHA)” value (DHA 40 μM) was “↑”, the “TNFSF11 regulation (top genes uniquely regulated by DHA)” value (DHA 40 μM) was “←” and the “ZNF652 regulation (top genes uniquely regulated by DHA)” value (DHA 40 μM) was “↓”. The “AHSA2 regulation (top genes commonly regulated)” value (“AHSA2 regulation” below) [1] was “↑”, the “ALPP down-regulation: symbol for regulation in common” value [1] was “¶(DPA)” and the “ALPP regulation (top genes commonly regulated)” value [1] was “↓”. For the same molecule, the “CATSPER2 regulation (top genes commonly regulated)” value (from here on “CATSPER2 regulation”) [1] was “↓”, the “CCBE1 down-regulation: symbol for regulation in common” value [1] was “¶(DPA)” and the “CCBE regulation (top genes commonly regulated)” value [1] was “↓”. For the same molecule, the “CCL20 regulation (top genes commonly regulated)” value (from here on “CCL20 regulation”) [1] was “↓”, the “CDKN2AIPNL regulation (top genes commonly regulated)” value (shortened to “CDKN2AIPNL regulation”) [1] was “↓” and the “DDX51 down-regulation: symbol for regulation in common” value [1] was “¶(DPA)”. The “DDX51 regulation (top genes commonly regulated)” value [1] was “↓”, the “HIST2H2AA3/HIST2H2AA4 up-regulation: symbol for regulation in common” value [1] was “¶(EPA)” and the “IL8 regulation (top genes commonly regulated)” value (“IL8 regulation” for short) [1] was “↓”. The “LOX up-regulation: symbol for regulation in common” value [1] was “¶(EPA)”, the “MST1 (includes EG: 15235) regulation (top genes commonly regulated)” value [1] was “↑” and the “MST1 (includes EG: 15235) up-regulation: symbol for regulation in common” value [1] was “¶(DPA)”.

In the case of `CC/C=C\C/C=C\C/C=C\C/C=C\C/C=C\CCCCCC(=O)O` [DPA, docosapentaenoic acid (C22:5 n-3)], the “number of genes involved in lipid metabolism responsive” value (1 μM DPA) is reported as 2 genes, the “fewer genes affected at the lower than at the higher DPA concentration” value (1 μM vs 11 μM DPA) is reported as 10 fold and the “increase in number of cardiovascular physiology genes affected” value (11 μM DPA vs 1 μM DPA) is reported as “five-fold”. For the same molecule, the “number of lipid metabolism genes uniquely responding with statistically significant change in expression” value (11 μM DPA, not 1 μM) was 22 genes, the “number of genes uniquely responsive to the higher, but not the lower, DPA level” value (11 μM vs 1 μM DPA) was 310 genes and 300 genes and the “Cardiovascular: Total gene responses Low [DPA]” value (DPA 1 μM) was 10. The “Inflammatory: Total gene responses Low [DPA]” value (DPA 1 μM) was 18, the “Lipid metabolism: Total gene responses Low [DPA]” value (DPA 1 μM) was 2 and the “Cardiovascular: Gene responses in common” value (DPA 1 μM and 11 μM) was 6. The “Inflammatory: Gene responses in common” value (DPA 1 μM and 11 μM) was 4, the “Lipid metabolism: Gene responses in common” value (DPA 1 μM and 11 μM) was 0 and the “APOA2 expression Fold Change” value (DPA 11 μM) was −1.229. The “CD83 expression Fold Change” value (DPA 11 μM) was −1.629, the “Cardiovascular: Total gene responses High [DPA]” value (DPA 11 μM) was 51 and the “DGAT1 expression Fold Change” value (DPA 11 μM) was 1.602. For the same molecule, the “DNAJB1 expression Fold Change” value (DPA 11 μM) was −1.489, the “FGFR3 expression Fold Change” value (DPA 11 μM) was 1.336 and the “GNAI3 expression Fold Change” value (DPA 11 μM) was 1.455. For the same molecule, the “IL8 expression Fold Change” value (DPA 11 μM) was −2.535, the “IL18 (includes EG: 16173) expression Fold Change” value (DPA 11 μM) was −1.347 and the “IL32 expression Fold Change” value (DPA 11 μM) was −1.629. For the same molecule, the “IP6K1 expression Fold Change” value (DPA 11 μM) was −1.242, the “IP6K2 expression Fold Change” value (DPA 11 μM) was 1.319 and the “Inflammatory: Total gene responses High [DPA]” value (DPA 11 μM) was 22. The “KIT expression Fold Change” value (DPA 11 μM) was 1.239, the “Lipid metabolism: Total gene responses High [DPA]” value (DPA 11 μM) was 22 and the “NFKB1 expression Fold Change” value (DPA 11 μM) was −1.386. For the same molecule, the “PDPN (includes EG: 10630) expression Fold Change” value (DPA 11 μM) was −1.307, the “PGF expression Fold Change” value (DPA 11 μM) was −1.284 and the “PIP4K2B expression Fold Change” value (DPA 11 μM) was −1.578. The “PLA2G16 expression Fold Change” value (DPA 11 μM) was −1.337, the “PLIN5 expression Fold Change” value (DPA 11 μM) was −1.371 and the “PTGR2 expression Fold Change” value (DPA 11 μM) was −1.416. For the same molecule, the “PTX3 expression Fold Change” value (DPA 11 μM) was −1.536, the “RGS2 (includes EG: 19735) expression Fold Change” value (DPA 11 μM) was 1.289 and the “STIP1 expression Fold Change” value (DPA 11 μM) was −1.469. The “ACADSB (short/branched chain acyl-CoA dehydrogenase) expression” value (DPA at 11 μM) was “upregulates”, the HMGCR expression (DPA at 11 μM) was “downregulated” and the SQLE expression (DPA at 11 μM) was “downregulated”. The “AHSA2 regulation” value [1] was “↑”, the “AHSA2 up-regulation: symbol for regulation in common” value [1] was “→♦” and the “ALPP down-regulation: symbol for regulation in common” value [1] was “¶(DHA)”. For the same molecule, the “ALPP regulation (top genes commonly regulated)” value [1] was “↓”, the “CATSPER2 down-regulation: symbol for regulation in common” value [1] was “→♦” and the “CATSPER2 regulation” value [1] was “↓”. The “CCBE1 down-regulation: symbol for regulation in common” value [1] was “¶(DHA)”, the “CCBE regulation (top genes commonly regulated)” value [1] was “↓” and the “CCL20 regulation” value [1] was “↓”. The “CDKN2AIPNL regulation” value [1] was “↓”, the “DDX51 down-regulation: symbol for regulation in common” value [1] was “¶(DHA)” and the “DDX51 regulation (top genes commonly regulated)” value [1] was “↓”. The “IL8 regulation” value [1] was “↓”, the “MST1 (includes EG: 15235) regulation (top genes commonly regulated)” value [1] was “↑” and the “MST1 (includes EG: 15235) up-regulation: symbol for regulation in common” value [1] was “→¶(DHA)”. The “RELB down-regulation: symbol for regulation in common” value [1] was “¶(EPA)”, the “RELB regulation (top genes commonly regulated)” value [1] was “↓” and the “SRSF1 regulation (top genes commonly regulated)” value [1] was “↑”. For the same molecule, the “SRSF1 up-regulation: symbol for regulation in common” value [1] was “→¶(EPA)”, the “increase in number of genes involved in inflammatory pathways” value (printed: observed at 1 μM) was “only a minor increase” and the ALDOC gene regulation [2] was “↑”. For the same molecule, the AMT gene regulation [2] was “↑”, the HNRNPA2B1 gene regulation [2] was “↑” and the MGC16121 gene regulation [2] was “↑”. For the same molecule, the PRKCD gene regulation [2] was “←”, the QRFPR gene regulation [2] was “↓” and the “RELA (inhibited) gene regulation” value [2] was “←”. The SRSF5 gene regulation [2] was “↑”, the STK36 gene regulation [2] was “↑” and the “TLR7 (inhibited) gene regulation” value [2] was “←”. For the same molecule, the TOP3B gene regulation [2] was “↑” and the ZNF14 gene regulation [2] was “↑”.

`CC/C=C\C/C=C\C/C=C\C/C=C\C/C=C\CCCC(=O)O` [EPA, eicosapentaenoic acid (C20:5 n-3)] was tested, and the “Beta-estradiol (inhibited) (top genes uniquely regulated by EPA)” value (EPA 100 μM) was “←”, the “GNAI3 regulation (top genes uniquely regulated by EPA)” value (EPA 100 μM) was “↑” and the “GOS2 regulation (top genes uniquely regulated by EPA)” value (EPA 100 μM) was “↓”. The “HERPUD1 regulation (top genes uniquely regulated by EPA)” value (EPA 100 μM) was “↓”, the “HIST2H2BE (includes others) regulation (top genes uniquely regulated by EPA)” value (EPA 100 μM) was “↑” and the “IER3 regulation (top genes uniquely regulated by EPA)” value (EPA 100 μM) was “↓”. For the same molecule, the “IL2 (inhibited) (top genes uniquely regulated by EPA)” value (EPA 100 μM) was “←”, the “Lipopolysaccharide (inhibited) (top genes uniquely regulated by EPA)” value (EPA 100 μM) was “←” and the “MAT2A regulation (top genes uniquely regulated by EPA)” value (EPA 100 μM) was “↑”. The “NFKBIA regulation (top genes uniquely regulated by EPA)” value (EPA 100 μM) was “↓”, the “NFkB (complex) (inhibited) (top genes uniquely regulated by EPA)” value (EPA 100 μM) was “←” and the “RGS2 (includes EG: 19735) regulation (top genes uniquely regulated by EPA)” value (EPA 100 μM) was “↑”. For the same molecule, the “AHSA2 regulation” value [1] was “↑”, the “CATSPER2 regulation” value [1] was “↓” and the “CCL20 regulation” value [1] was “↓”. For the same molecule, the “CDKN2AIPNL regulation” value [1] was “↓”, the “HIST1H3A (includes others) up-regulation: symbol for regulation in common” value [1] was “¶(DHA)” and the “HIST2H2AA3/HIST2H2AA4 up-regulation: symbol for regulation in common” value [1] was “¶(DHA)”. For the same molecule, the “IL8 regulation” value [1] was “↓”, the “LOX up-regulation: symbol for regulation in common” value [1] was “¶(DHA)” and the “RELB down-regulation: symbol for regulation in common” value [1] was “¶(DPA)”. The “RELB regulation (top genes commonly regulated)” value [1] was “↓”, the “SRSF1 regulation (top genes commonly regulated)” value [1] was “↑” and the “SRSF1 up-regulation: symbol for regulation in common” value [1] was “¶(DPA)”.
